Data on 17 compounds can be found in patent US20160046618A1, “Cyclopropyl Fused Thiazin-2-Amine Compounds as Beta-Secretase Inhibitors and Methods of Use” (AMGEN INC., priority 2014, published 2016).

The target in one experiment is Recombinant Cat D (Homo sapiens (Human), UniProt P07339). As to the kind of experiment: In vitro enzymatic Cathepsin D (Cat D) FRET assay. The settings on record: read-out: IC50 IP (μM) CatD. The experiment is classed as biochemical. In a few lines:
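Cleavage of a 20 nM fluorophore/quencher peptide by CHO-expressed recombinant Cat D proceeded for one hour at pH 3.5 (0.05 M citrate, 5 mM CHAPS, 10% DMSO final). Tris addition neutralized the pH to end the reaction. Fluorescence was then measured (ex 500 nm/em 580 nm).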

A further experiment addresses human recombinant BACE1 (Homo sapiens (Human), UniProt P56817). As to the kind of experiment: In vitro enzymatic BACE1 FRET assay. It is filed as biochemical. The note with it: read-out: IC50 IP (μM) BACE1 enzyme. In a few lines:
(§1)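 Tris addition raises the pH to neutral to stop the reaction before fluorescence is measured at 590 nm emission with 488 nm excitation.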

Another experiment addresses human recombinant BACE2 (Homo sapiens (Human), UniProt Q9Y5Z0). Briefly: In vitro enzymatic BACE2 FRET assay. The experiment is classed as biochemical. The settings on record: read-out: IC50 IP (μM) BACE2 enzyme. In a few lines: as §1
Experiment [1] has as its system Aβ40 in conditioned medium of cells stably expressing Amyloid Precursor Protein (APP). As to the kind of experiment: In vitro BACE-1 cell-based assay (Aβ40 sandwich ELISA). The note with it: read-out: IC50 IP (μM) BACE1 cell. In short, it runs like this: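 Read-out: time-resolved fluorescence (Streptavidin-Europium) of Aβ40 captured by pAb40 and detected with biotinylated 6E10 from supernatants of APP-stable cells. Cells were exposed to compound for 24 h, 10-point dose response, top dose 100 μM or 10 μM, 0.1% DMSO. IC50 fitted to percent of control.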

A value given as a limit tells only on which side of the number the result lay.

For orientation: IC50 means the point on the concentration scale where inhibition reaches its midpoint.

Sequence of human recombinant BACE1 (P56817 46-501): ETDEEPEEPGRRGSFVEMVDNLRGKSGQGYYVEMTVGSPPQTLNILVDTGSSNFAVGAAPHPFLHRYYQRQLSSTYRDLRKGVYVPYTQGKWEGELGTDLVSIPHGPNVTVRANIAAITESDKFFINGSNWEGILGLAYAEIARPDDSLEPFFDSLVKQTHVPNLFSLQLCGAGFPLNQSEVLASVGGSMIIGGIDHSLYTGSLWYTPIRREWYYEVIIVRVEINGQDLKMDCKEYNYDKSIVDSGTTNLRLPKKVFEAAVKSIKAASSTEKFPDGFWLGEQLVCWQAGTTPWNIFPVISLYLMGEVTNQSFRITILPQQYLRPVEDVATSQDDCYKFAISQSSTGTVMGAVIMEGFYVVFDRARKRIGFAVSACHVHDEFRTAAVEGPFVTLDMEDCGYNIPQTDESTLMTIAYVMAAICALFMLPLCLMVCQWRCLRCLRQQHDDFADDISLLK
Sequence of Recombinant Cat D (P07339 65-412): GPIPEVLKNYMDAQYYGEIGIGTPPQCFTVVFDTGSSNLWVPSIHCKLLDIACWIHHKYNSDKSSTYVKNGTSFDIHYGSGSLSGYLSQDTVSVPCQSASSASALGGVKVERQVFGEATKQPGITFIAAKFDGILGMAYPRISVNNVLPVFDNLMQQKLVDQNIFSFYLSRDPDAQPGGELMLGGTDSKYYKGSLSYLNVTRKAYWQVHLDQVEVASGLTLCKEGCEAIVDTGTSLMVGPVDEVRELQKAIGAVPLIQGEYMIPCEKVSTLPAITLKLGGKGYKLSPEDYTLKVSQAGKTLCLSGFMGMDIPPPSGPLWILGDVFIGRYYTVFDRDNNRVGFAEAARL
Sequence of human recombinant BACE2 (Q9Y5Z0 63-518): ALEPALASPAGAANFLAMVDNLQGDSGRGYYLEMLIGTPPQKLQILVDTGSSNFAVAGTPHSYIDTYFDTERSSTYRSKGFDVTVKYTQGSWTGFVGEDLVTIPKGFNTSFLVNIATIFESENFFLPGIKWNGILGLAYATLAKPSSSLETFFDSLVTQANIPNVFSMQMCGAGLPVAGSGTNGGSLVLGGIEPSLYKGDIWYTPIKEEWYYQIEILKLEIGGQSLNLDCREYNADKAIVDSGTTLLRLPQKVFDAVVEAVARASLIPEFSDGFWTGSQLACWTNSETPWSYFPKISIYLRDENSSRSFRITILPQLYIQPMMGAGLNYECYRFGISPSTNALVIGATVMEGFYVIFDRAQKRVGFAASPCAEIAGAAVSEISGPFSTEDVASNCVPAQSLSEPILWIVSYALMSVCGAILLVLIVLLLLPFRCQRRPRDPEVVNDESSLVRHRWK

With `C#CCOc1cnc(C(=O)Nc2cc(F)c(F)c([C@@]3(C)N=C(N)S[C@@]4(CNC(=O)OC(C)(C)C)C[C@H]43)c2)cn1` [Example 980, tert-butyl(((1S,5S,6S)-3-amino-5-(2,3-difluoro-5-(5-(prop-2-yn-1-yloxy)pyrazine-2-carboxamido)phenyl)-5-methyl-2-thia-4-azabicyclo[4.1.0]hept-3-en-1-yl)methyl)carbamate], the IC50 came out at 19.8 µM on Recombinant Cat D, 0.000455 µM at human recombinant BACE1, 0.013 µM at human recombinant BACE2 and 0.000747 µM in experiment [1].

On to `C#CCOc1cnc(C(=O)Nc2cc(F)c(F)c([C@@]3(C)N=C(N)S[C@@]4(CN)C[C@H]43)c2)cn1` [Example 981, N-(3-((1S,5S,6S)-3-amino-1-(aminomethyl)-5-methyl-2-thia-4-azabicyclo[4.1.0]hept-3-en-5-yl)-4,5-difluorophenyl)-5-(prop-2-yn-1-yloxy)pyrazine-2-carboxamide], for which the IC50 stood at 106 µM on Recombinant Cat D, 0.00315 µM on human recombinant BACE1, 0.0575 µM at human recombinant BACE2 and 0.00074 µM in experiment [1].

As to `C[C@]1(c2cc(NC(=O)c3cnc(OCC(F)(F)F)cn3)ccc2F)N=C(N)S[C@@]2(C(=O)NC3CC3(F)F)C[C@H]21` (stereo partly drawn) [Example 982, (1S,5S,6S)-3-amino-N-(2,2-difluorocyclopropyl)-5-(2-fluoro-5-(5-(2,2,2-trifluoroethoxy)pyrazine-2-carboxamido)phenyl)-5-methyl-2-thia-4-azabicyclo[4.1.0]hept-3-ene-1-carboxamide], the IC50 on Recombinant Cat D is 175 µM; at human recombinant BACE1, 0.000679 µM; at human recombinant BACE2 it was 0.032 µM; in experiment [1] it was 0.00329 µM.

On to `CC(C)(CF)NC(=O)[C@]12C[C@H]1[C@@](C)(c1cc(NC(=O)c3cnc(OCC(F)(F)F)cn3)ccc1F)N=C(N)S2` [Example 983, (1S,5S,6S)-3-amino-N-(1-fluoro-2-methylpropan-2-yl)-5-(2-fluoro-5-(5-(2,2,2-trifluoroethoxy)pyrazine-2-carboxamido)phenyl)-5-methyl-2-thia-4-azabicyclo[4.1.0]hept-3-ene-1-carboxamide], for which the IC50 on Recombinant Cat D worked out at 172 µM; on human recombinant BACE1, 0.00151 µM; on human recombinant BACE2 it was 0.174 µM; in experiment [1], 0.00736 µM.

For `CON(C)C(=O)[C@]12C[C@H]1[C@@](C)(c1cc(NC(=O)c3cnc(OCC(F)(F)F)cn3)ccc1F)N=C(N)S2` [Example 984, (1S,5S,6S)-3-amino-5-(2-fluoro-5-(5-(2,2,2-trifluoroethoxy)pyrazine-2-carboxamido)phenyl)-N-methoxy-N,5-dimethyl-2-thia-4-azabicyclo[4.1.0]hept-3-ene-1-carboxamide], the IC50 was 1110 µM on Recombinant Cat D, 0.000858 µM at human recombinant BACE1, 0.0217 µM at human recombinant BACE2 and 0.00125 µM in experiment [1].

In the case of `CNC(=O)[C@]12C[C@H]1[C@@](C)(c1cc(NC(=O)c3ccc(Cl)cn3)ccc1F)N=C(N)S2` [Example 985, (1S,5S,6S)-3-amino-5-(5-(5-chloropicolinamido)-2-fluorophenyl)-N,5-dimethyl-2-thia-4-azabicyclo[4.1.0]hept-3-ene-1-carboxamide], the IC50 at Recombinant Cat D is 1120 µM; on human recombinant BACE1, 0.000276 µM; on human recombinant BACE2 it was less than 0.00203 µM; in experiment [1], 0.000709 µM.

On to `CC(C)(C)NC(=O)[C@]12C[C@H]1[C@@](C)(c1cc(NC(=O)c3ccc(C#N)cn3)ccc1F)N=C(N)S2` [Example 986, (1S,5S,6S)-3-amino-N-tert-butyl-5-(5-(((5-cyano-2-pyridinyl)carbonyl)amino)-2-fluorophenyl)-5-methyl-2-thia-4-azabicyclo[4.1.0]hept-3-ene-1-carboxamide], for which the IC50 was 172 µM on Recombinant Cat D, 0.00113 µM on human recombinant BACE1, 0.00598 µM at human recombinant BACE2 and 0.00141 µM in experiment [1].

Regarding `C#CCOc1cnc(C(=O)Nc2ccc(F)c([C@@]3(C)N=C(N)S[C@@]4(C(=O)NC)C[C@H]43)c2)cn1` [Example 987, (1S,5S,6S)-3-amino-5-(2-fluoro-5-(((5-(2-propyn-1-yloxy)-2-pyrazinyl)carbonyl)amino)phenyl)-N,5-dimethyl-2-thia-4-azabicyclo[4.1.0]hept-3-ene-1-carboxamide], the IC50 at Recombinant Cat D was determined as 49.9 µM; on human recombinant BACE1, 0.00014 µM; on human recombinant BACE2, 0.0079 µM; in experiment [1] it was 0.000229 µM.

Turning to `C#C[C@@H](C)Oc1cnc(C(=O)Nc2ccc(F)c([C@@]3(C)N=C(N)S[C@@]4(COC)C[C@H]43)c2)cn1` [Example 988], the IC50 is more than 400 µM on Recombinant Cat D, 0.0216 µM at human recombinant BACE1, 0.336 µM at human recombinant BACE2 and 0.0532 µM in experiment [1].

Take `C#CCOc1cnc(C(=O)Nc2cnc(OC)c([C@@]3(C)N=C(N)S[C@@]4(C(F)F)C[C@@H]34)c2)cn1` [Example 989, N-(5-((1S,5S,6S)-3-amino-1-(difluoromethyl)-5-methyl-2-thia-4-azabicyclo[4.1.0]hept-3-en-5-yl)-6-methoxy-3-pyridinyl)-5-(2-propyn-1-yloxy)-2-pyrazinecarboxamide]: the IC50 on Recombinant Cat D came out at 174 µM; on human recombinant BACE1, 0.000518 µM; on human recombinant BACE2, 0.0406 µM; in experiment [1], 0.00067 µM.

Regarding `COc1ncc(NC(=O)c2ccc(Cl)cn2)cc1[C@@]1(C)N=C(N)S[C@@]2(C(F)F)C[C@@H]12` [Example 990, N-(5-((1S,5S,6S)-3-amino-1-(difluoromethyl)-5-methyl-2-thia-4-azabicyclo[4.1.0]hept-3-en-5-yl)-6-methoxy-3-pyridinyl)-5-chloro-2-pyridinecarboxamide], the IC50 was found to be 67 µM at Recombinant Cat D, 0.0208 µM at human recombinant BACE1, 0.00465 µM on human recombinant BACE2 and 0.026 µM in experiment [1].

For the compound `C[C@]1(c2cc(NC(=O)c3cnc(OCC(F)(F)F)cn3)ccc2F)N=C(N)S[C@@]2(C(=O)N3CC[C@@H](F)C3)C[C@H]21` [Example 991, N-(3-((1S,5S,6S)-3-amino-1-((R)-3-fluoropyrrolidine-1-carbonyl)-5-methyl-2-thia-4-azabicyclo[4.1.0]hept-3-en-5-yl)-4-fluorophenyl)-5-(2,2,2-trifluoroethoxy)pyrazine-2-carboxamide], the IC50 was determined as 664 µM at Recombinant Cat D, 0.000297 µM on human recombinant BACE1, 0.0097 µM on human recombinant BACE2 and 0.000265 µM in experiment [1].

For the compound `C[C@]1(c2cc(NC(=O)c3cnc(OCC(F)(F)F)cn3)ccc2F)N=C(N)S[C@@]2(C(=O)N3CC[C@H](F)C3)C[C@H]21` [Example 992, N-(3-((1S,5S,6S)-3-amino-1-((S)-3-fluoropyrrolidine-1-carbonyl)-5-methyl-2-thia-4-azabicyclo[4.1.0]hept-3-en-5-yl)-4-fluorophenyl)-5-(2,2,2-trifluoroethoxy)pyrazine-2-carboxamide], the 50% inhibitory concentration (IC50) at Recombinant Cat D was determined as 954 µM; at human recombinant BACE1, 0.000776 µM; on human recombinant BACE2, 0.0125 µM; in experiment [1], 0.000338 µM.

As to `C#C[C@H](C)Oc1cnc(C(=O)Nc2ccc(F)c([C@@]3(C)N=C(N)S[C@@]4(C(=O)NC5CC5)C[C@H]43)c2)cn1` [Example 993, (1S,5S,6S)-3-amino-N-cyclopropyl-5-(2-fluoro-5-(((5-(((1S)-1-methyl-2-propyn-1-yl)oxy)-2-pyrazinyl)carbonyl)amino)phenyl)-5-methyl-2-thia-4-azabicyclo[4.1.0]hept-3-ene-1-carboxamide], the IC50 came out at 255 µM at Recombinant Cat D, 0.00048 µM at human recombinant BACE1, 0.061 µM at human recombinant BACE2 and 0.000566 µM in experiment [1].

As for `C#C[C@H](C)Oc1cnc(C(=O)Nc2ccc(F)c([C@@]3(C)N=C(N)S[C@@]4(C(=O)NC(C)(C)C)C[C@H]43)c2)cn1` [Example 994, (1S,5S,6S)-3-amino-N-tert-butyl-5-(2-fluoro-5-(((5-(((1S)-1-methyl-2-propyn-1-yl)oxy)-2-pyrazinyl)carbonyl)amino)phenyl)-5-methyl-2-thia-4-azabicyclo[4.1.0]hept-3-ene-1-carboxamide], the concentration for half-maximal inhibition (IC50) on Recombinant Cat D was found to be 215 µM; at human recombinant BACE1 it was 0.00069 µM; at human recombinant BACE2, 0.0689 µM; in experiment [1] it was 0.00116 µM.

For `CC(C)[C@@H](C)NC(=O)[C@]12C[C@H]1[C@@](C)(c1cc(NC(=O)c3cnc(OCC(F)(F)F)cn3)ccc1F)N=C(N)S2` [Example 997, (1S,5S,6S)-3-amino-5-(2-fluoro-5-(5-(2,2,2-trifluoroethoxy)pyrazine-2-carboxamido)phenyl)-5-methyl-N—((R)-3-methylbutan-2-yl)-2-thia-4-azabicyclo[4.1.0]hept-3-ene-1-carboxamide], the IC50 at Recombinant Cat D is 9.48 µM; on human recombinant BACE1, 0.000893 µM; at human recombinant BACE2, 0.0509 µM; in experiment [1], 0.00672 µM.

For the compound `C[C@]1(c2cc(NC(=O)c3cnc(OCC(F)(F)F)cn3)ccc2F)N=C(N)S[C@@]2(C(=O)N3CCOCC3)C[C@H]21` [Example 998, N-(3-((1S,5S,6S)-3-amino-5-methyl-1-(morpholine-4-carbonyl)-2-thia-4-azabicyclo[4.1.0]hept-3-en-5-yl)-4-fluorophenyl)-5-(2,2,2-trifluoroethoxy)pyrazine-2-carboxamide], the IC50 on Recombinant Cat D is more than 400 µM; at human recombinant BACE1 it was 0.000146 µM; on human recombinant BACE2, 0.0754 µM; in experiment [1], 0.0017 µM.
